Assay results taken from patent US9617602B2, “Methods and compositions for determining resistance to androgen receptor therapy” (Aragon Pharmaceuticals, Inc., priority 2012, dated 2017).
Where two headings read alike, the source gives them in different places.

What was measured:
LNCaP cells = assay: Proliferation assay (CellTiter-Glo), agonist and antagonist mode; format: cell-based, human
[1] = system: prostate specific antigen (PSA); format: in vivo
Description: Patients with mCRPC were assigned sequentially to dose levels in cohorts of 3 to 6 patients per dose level using standard 3×3 dose-escalation criteria.
Eligible patients who signed informed consent documents were initially enrolled into a dose escalation cohort where they will receive a single oral dose of ARN-509 followed by a one-week observation period (PK Week). Continuous dosing began on Cycle 1 Day 1 assuming no unacceptable toxicities were observed.
A minimum of 3 subjects at each dose level were monitored for a DLT through day 28 of Cycle 1.
The starting dose was 30 mg/day, with escalations to 60 mg, 90 mg, 120 mg, 180 mg, 240 mg, 300 mg, 390 mg, and 480 mg daily. It was anticipated that these dose levels span the anticipated pharmacologically active dose range and be within the safety margin indicated by the preclinical toxicology results.
Following the selection of 240 mg as the RP2D, additional eligible patients were enrolled in the Phase 2 portion of the study, consisting of 3 concurrent expansion cohorts at the MTD and/or RP2D to gather additional safety information and provide an initial signal of anti-tumor activity. The three expansion cohorts included:
It was expected that each patient with mCRPC would receive at least 3 cycles (12 weeks) of continuous treatment and each patient with non-metastatic CRPC will receive at least 4 cycles (16 weeks) of continuous treatment. Treatment was discontinued at any time for protocol-defined disease progression or unacceptable toxicity. Tumor evaluations were performed every 3 cycles (12 weeks) for patients with mCRPC and every 4 cycles (16 weeks) for patients with non-metastatic CRPC. Safety was assessed from the first dose through at least four weeks after the last dose or until resolution of drug-related toxicity, or when toxicity is deemed irreversible, whichever was longer.

LNCaP/AR(cs) cells = assay: Proliferation assay (CellTiter-Glo), agonist and antagonist mode; format: cell-based, human
[2] = system: Class 1 resistant cell lines; assay: Endogenous gene transcriptional assay (real-time PCR of androgen responsive genes); format: cell-based, human
Description: (§1) Total RNA was isolated using the Aurum™ total RNA isolation kit (BIO-RAD, Hercules, Calif.). RNA (1 μg) was reverse transcribed using the iScript cDNA synthesis kit (BIO-RAD, Hercules, Calif.) to produce cDNA. Real-time PCR was performed using the Applied Biosystems 7900HT instrument and SYBR Green PCR Master Mix (Applied Biosystems, Foster City, Calif.). PCR reactions were performed in 6 μL according to the manufacturer's protocol and a thermocycle protocol of 95° C. for 10 minutes followed by 40 cycles of 95° C. for 15 seconds and 58° C. for 1 minute. Androgen responsive gene (PSA, SLUG, TMPRSS2, STEAP4, FKBP5, ORM1, NOV, FASN, NKX3.1, AMIGO2, BDNF, CAMK2N1, HPGD, NCAPD3, PLD1) expression was normalized to GAPDH expression and expressed relative to vehicle treatment of the parental cell line.

[3] = system: Class 2 resistant cell lines; assay: as above; format: cell-based, human
Description: as §1

CNC(=O)c1ccc(N2C(=S)N(c3cnc(C#N)c(C(F)(F)F)c3)C(=O)C23CCC3)cc1F [ARN-509]
viability at 0.0001 µM (LNCaP cells; Homo sapiens, 168 h, read-out: Antagonist Proliferation Assay (% Viability)): < 30% | Agonist Proliferation Assay (% Viability) (LNCaP cells; [Antagonists] = 10 μM, 7 days): + (‘+’ = <30) | PSA, Patient 10 ([1]; Cycle 4): 102 % of TO | PSA, Patient 13 ([1]; Cycle 4): 16.2 % of baseline | PSA decline from baseline, Patient 7 ([1]; Cycle 4, 8 and 10): > 90% | PSA below study start, Patient 13 ([1]; Cycle 11 and 12): > 60% | 12 week PSA Response ([1]; Patient 1): 30.49 | PSA at Time of BEAMing Analysis [Percent of Baseline] ([1]; Patient 1, Treatment Cycle 19): 195.4% of Baseline | 12 week PSA Response ([1]; Patient 2): −61.8 | PSA at Time of BEAMing Analysis [Percent of Baseline] ([1]; Patient 2, Treatment Cycle 10): 337.08% of Baseline | 12 week PSA Response ([1]; Patient 3): 22.7 | PSA at Time of BEAMing Analysis [Percent of Baseline] ([1]; Patient 3, Treatment Cycle 4): 122% of Baseline | 12 week PSA Response ([1]; Patient 4): 12.4 | PSA at Time of BEAMing Analysis [Percent of Baseline] ([1]; Patient 4, Treatment Cycle 5): 134% of Baseline | 12 week PSA Response ([1]; Patient 5): −70.65 | PSA at Time of BEAMing Analysis [Percent of Baseline] ([1]; Patient 5, Treatment Cycle 8): 16% of Baseline | 12 week PSA Response ([1]; Patient 6): −90.02 | PSA at Time of BEAMing Analysis [Percent of Baseline] ([1]; Patient 6, Treatment Cycle 10): 84.6% of Baseline | 12 week PSA Response ([1]; Patient 7): −98.6 | PSA [Percent of Day 0] ([1]; Patient 7, Treatment Cycle 4): 1.4% of Day 0 | PSA [Percent of Day 0] ([1]; Patient 7, Treatment Cycle 8): 3.3% of Day 0 | PSA [Percent of Day 0] ([1]; Patient 7, Treatment Cycle 10): 5.6% of Day 0 | PSA [Percent of Day 0] ([1]; Patient 7, Treatment Cycle 15): 41.2% of Day 0 | PSA [Percent of Day 0] ([1]; Patient 7, Treatment Cycle 19): 97.2% of Day 0 | PSA [Percent of Day 0] ([1]; Patient 7, Treatment Cycle 22): 281.0% of Day 0 | PSA at Time of BEAMing Analysis [Percent of Baseline] ([1]; Patient 7, Treatment Cycle 22): 281% of Baseline | 12 week PSA Response ([1]; Patient 8): −62.2 | PSA at Time of BEAMing Analysis [Percent of Baseline] ([1]; Patient 8, Treatment Cycle 16): 10.2% of Baseline | 12 week PSA Response ([1]; Patient 9): 26.38 | PSA at Time of BEAMing Analysis [Percent of Baseline] ([1]; Patient 9, Treatment Cycle 7): 185% of Baseline | 12 week PSA Response ([1]; Patient 10): 2.33 | PSA [Percent of Day 0] ([1]; Patient 10, Treatment Cycle 4): 102% of Day 0 | PSA [Percent of Day 0] ([1]; Patient 10, Treatment Cycle 7): 245% of Day 0 | PSA at Time of BEAMing Analysis [Percent of Baseline] ([1]; Patient 10, Treatment Cycle 7): 245% of Baseline | 12 week PSA Response ([1]; Patient 11): −49.76 | PSA at Time of BEAMing Analysis [Percent of Baseline] ([1]; Patient 11, Treatment Cycle 8): 143.88% of Baseline | 12 week PSA Response ([1]; Patient 12): −56.65 | PSA at Time of BEAMing Analysis [Percent of Baseline] ([1]; Patient 12, Treatment Cycle 7): 99.47% of Baseline | 12 week PSA Response ([1]; Patient 13): −83.79 | PSA [Percent of Day 0] ([1]; Patient 13, Treatment Cycle 4): 16.2% of Day 0 | PSA [Percent of Day 0] ([1]; Patient 13, Treatment Cycle 11): 31.7% of Day 0 | PSA at Time of BEAMing Analysis [Percent of Baseline] ([1]; Patient 13, Treatment Cycle 11): 31.7% of Baseline | PSA [Percent of Day 0] ([1]; Patient 13, Treatment Cycle 12): 39.5% of Day 0 | 12 week PSA Response ([1]; Patient 14): −43.21 | PSA at Time of BEAMing Analysis [Percent of Baseline] ([1]; Patient 14, Treatment Cycle 11): 150.5% of Baseline | 12 week PSA Response ([1]; Patient 15): 164.14 | PSA at Time of BEAMing Analysis [Percent of Baseline] ([1]; Patient 15, Treatment Cycle 3): 220% of Baseline | 12 week PSA Response ([1]; Patient 16): 89.09 | PSA at Time of BEAMing Analysis [Percent of Baseline] ([1]; Patient 16, Treatment Cycle 4): 189% of Baseline | 12 week PSA Response ([1]; Patient 17): −45.86 | PSA at Time of BEAMing Analysis [Percent of Baseline] ([1]; Patient 17, Treatment Cycle 4): 54.14% of Baseline | 12 week PSA Response ([1]; Patient 18): −95.65 | PSA at Time of BEAMing Analysis [Percent of Baseline] ([1]; Patient 18, Treatment Cycle 6): 7.34% of Baseline | 12 week PSA Response ([1]; Patient 19): −71.19 | PSA at Time of BEAMing Analysis [Percent of Baseline] ([1]; Patient 19, Treatment Cycle 11): 196.86% of Baseline | 12 week PSA Response ([1]; Patient 20): −30.88 | PSA at Time of BEAMing Analysis [Percent of Baseline] ([1]; Patient 20, Treatment Cycle 21): 89.3% of Baseline | 12 week PSA Response ([1]; Patient 21): −74.43 | PSA at Time of BEAMing Analysis [Percent of Baseline] ([1]; Patient 21, Treatment Cycle 10): 46.91% of Baseline | 12 week PSA Response ([1]; Patient 22): −82.7 | PSA at Time of BEAMing Analysis [Percent of Baseline] ([1]; Patient 22, Treatment Cycle 25): 0.19% of Baseline | 12 week PSA Response ([1]; Patient 23): 97.78 | PSA at Time of BEAMing Analysis [Percent of Baseline] ([1]; Patient 23, Treatment Cycle 8): 222.46% of Baseline | 12 week PSA Response ([1]; Patient 24): −74.86 | PSA at Time of BEAMing Analysis [Percent of Baseline] ([1]; Patient 24, Treatment Cycle 25): 4.89% of Baseline | 12 week PSA Response ([1]; Patient 25): −30.07 | PSA at Time of BEAMing Analysis [Percent of Baseline] ([1]; Patient 25, Treatment Cycle 12): 161% of Baseline | 12 week PSA Response ([1]; Patient 26): 96.51 | PSA at Time of BEAMing Analysis [Percent of Baseline] ([1]; Patient 26, Treatment Cycle 5): 214.85% of Baseline | 12 week PSA Response ([1]; Patient 27): −0.89 | PSA at Time of BEAMing Analysis [Percent of Baseline] ([1]; Patient 27, Treatment Cycle 13): 20.69% of Baseline | 12 week PSA Response ([1]; Patient 28): −33.59 | PSA at Time of BEAMing Analysis [Percent of Baseline] ([1]; Patient 28, Treatment Cycle 10): 126% of Baseline | 12 week PSA Response ([1]; Patient 29): −58.44 | PSA at Time of BEAMing Analysis [Percent of Baseline] ([1]; Patient 29, Treatment Cycle 13): 105% of Baseline | Patients exhibiting a 12 week ≧50% decline in PSA compared to baseline ([1]; across all dose groups): 14/30 | Recommended Phase 2 dose (RP2D) ([1]; human, in vivo, po, 28 days): 240 mg | viability at 0.0001 µM (LNCaP/AR(cs) cells; Homo sapiens, LNCaP/AR, 168 h, read-out: Antagonist Proliferation Assay (% Viability)): < 30% | Agonist Proliferation Assay (% Viability) (LNCaP/AR(cs) cells; LNCaP/AR(cs), [Antagonists] = 10 μM, 7 days): + (‘+’ = <30)

CNC(=O)c1ccc(N2C(=S)N(c3ccc(C#N)c(C(F)(F)F)c3)C(=O)C2(C)C)cc1F [Enzalutamide, enzalutamide]
Transcriptional activity on endogenous androgen-responsive genes, Class 1 resistant cells [2]: weak transcriptional agonist | Transcriptional activity on endogenous androgen-responsive genes, Class 2 resistant cell lines [3]: robust transcriptional agonist activity
